{"source": "patent US7618988B2", "about": "“Use of substituted aminomethyl chromans” (Merck Patentgesellschaft, priority 2001, dated 2009)", "key": {"dopamine D4 receptors": {"biological_target": "dopamine D4 receptors (Homo sapiens, UniProt P21917)", "sequence (P21917 whole entry)": "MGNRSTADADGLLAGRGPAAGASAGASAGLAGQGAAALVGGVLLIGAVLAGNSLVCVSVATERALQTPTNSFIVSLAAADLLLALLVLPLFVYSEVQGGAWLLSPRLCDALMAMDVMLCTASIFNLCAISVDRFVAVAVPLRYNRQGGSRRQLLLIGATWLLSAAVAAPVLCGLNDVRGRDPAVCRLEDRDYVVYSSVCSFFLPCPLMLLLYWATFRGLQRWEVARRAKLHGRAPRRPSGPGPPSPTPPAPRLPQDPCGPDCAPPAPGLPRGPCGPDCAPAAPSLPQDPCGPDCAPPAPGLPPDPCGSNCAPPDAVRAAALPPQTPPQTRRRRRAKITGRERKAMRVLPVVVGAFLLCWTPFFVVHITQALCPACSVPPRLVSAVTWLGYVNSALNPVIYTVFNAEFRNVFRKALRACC", "conditions": "literature statement; cited from earlier work"}, "cataleptic rat": {"tested_on": "cataleptic rat", "assay": "reversal of catalepsy in rats", "type": "in vivo", "conditions": "subcutaneous; for ED50: Rattus norvegicus, sc, read-out: ED50 (calculated dose to reverse catalepsy by 50%)", "procedure": "R represents hydrogen or a hydroxyl protecting group, and their optical isomers and pharmaceutically acceptable salts, in particular 2-({[5-(4-fluorophenyl)-pyridin-3ylmethyl]-amino}-methyl)-chroman-4-ol or an optical isomer or a physiologically acceptable salt or solvate thereof, excert an extraordinary potency in reversing catalepsy. Extrapyramidal motor side effects in e.g. rodents are measured by the ability of a drug to induce catalepsy. Catalepsy is defined as a state where an animal continues to remain in an unnormal (nonphysiological ‘uncomfortable’) posture for a long time (e.g.: M. E. Stanley and S. D. Glick, Neuropharmacology, 1996; 15: 393-394; C. J. E. Niemegeers and P. Janssen, Life Sci., 1979, […]). For example, if a hindpaw of a rat is placed on an elevated level, e.g. a platform elevated 3 cm above ground level, a normal rat immediately withdraws the hindpaw from the platform to the ground level. A cataleptic rat remains in this unnatural posture even for minutes."}, "parkinsonian monkeys": {"tested_on": "parkinsonian monkeys", "conditions": "literature; cited from earlier work"}, "Parkinson patients": {"tested_on": "Parkinson patients", "conditions": "literature; cited from earlier work"}, "[1]": {"tested_on": "patients with advanced idiopathic Parkinson's disease", "assay": "double-blind study, advanced idiopathic Parkinson's disease with peak-dose dyskinesia", "type": "in vivo, human", "conditions": "add on, 2.5 to 10 mg b.i.d., diary card", "text": "A typical study to investigate the efficacy of the compounds according to the invention for adverse effects in Parkinson's disease is described in the following. 40 patients of either sex with advanced idiopathic Parkinson's disease complicated by “peak-dose” dyskinesia participate in a double-blind study. The main inclusion criteria are Hoehn & Yahr stage ≧2.5 (lit.: Hoehn H. M. et al, Neurology 1967; 17: 427-442), aged 40-75 years, symptom duration of at least 5 years, and a l-dopa treatment duration of at least 3 years. (2R,4R)-2-({[5-(4-fluorophenyl)-pyridin-3ylmethyl]-amino}-methyl)-chroman-4-ol monohydrochloride hemihydrate or placebo is administered as “add on” to the conventional Parkinson treatment, which is maintained unchanged during the whole study. The dose of blinded medication is titrated over a period of 3 weeks in a range from 2.5 to 10 mg b.i.d. Then the medication is kept constant for 3 weeks. Before the start of titration and at the end of the treatment period the patients fill a diary card in 30 min. inervals for 48 hours. The diary card differentiates 5 different states: (1) “on” without dyskinesia, (2) “on” with troublesome dyskinesia, (3) “on” with non-troublesome dyskinesia, (4) “off” time, and (5) time asleep (Hauser R A et al., Clin. Neuropharmacol., 2000, 23, 75-81). The primary outcome variable of the protocol is the change in “on” time with troublesome dyskinesia. […] The other parameters are not changed."}, "[2]": {"tested_on": "patients with idiopathic Parkinson's disease", "assay": "double-blind study, idiopathic Parkinson's disease", "type": "in vivo, human", "conditions": "add on, 2.5 to 10 mg b.i.d.", "text": "A typical study to investigate the efficacy of the compounds according to the invention in the treatment of idiopathic Parkinson's disease is described in the following. 180 patients of either sex with idiopathic Parkinson's disease participate in a double-blind study. The main inclusion criteria are Hoehn & Yahr stage ≧2.0 (Hoehn H. M. et al, Neurology 1967; 17: 427442), aged 50-80 years, symptom duration of at least 5 years. (2R,4R)-2-({[5-(4-fluorophenyl)-pyridin-3ylmethyl]-amino}-methyl)-chroman-4-ol monohydrochloride hemihydrate or placebo is administered as “add on” to the conventional Parkinson treatment, which is maintained unchanged during the whole study. The dose of blinded medication is titrated over a period of 4 weeks in a range from 2.5 to 10 mg b.i.d. Then the medication is kept constant for 1 week. Before the start of titration and at the end of the treatment period the patients fill a diary card in 30 min. intervals for 48 hours. The diary card differentiates 5 different states: (1) “on” without dyskinesia, (2) “on” with troublesome dyskinesia, (3) “on” with non-troublesome dyskinesia, (4) “off” time, and (5) time asleep (Hauser R A et al., Clin. Neuropharmacol., 2000, 23, 75-81). […]"}, "MSA patients": {"tested_on": "MSA patients", "assay": "study in MSA patients (UPDRS)", "type": "in vivo, human", "conditions": "add on, 2,5 to 20 mg b.i.d.", "procedure": "The study design is similar to that described above for Parkinson's disease. (2R,4R)-2-({[5-(4-fluorophenyl)-pyridin-3ylmethyl]-amino}-methyl)-chroman-4-ol monohydrochloride hemihydrate or placebo is titrated as “add on” to the conventional treatment (dose range 2,5 to 20 mg b.i.d.). After a double-blind dose-finding phase of 3 weeks during which the individual dose is identified for each patient on the basis of tolerability and efficacy, the dose is maintained unchanged for 3 additional weeks. Before the start of titration and at the end of the treatment period a complete UPDRS assessment is performed in each patient (primary outcome measure)."}, "[3]": {"tested_on": "schizophrenic inpatients on long-term antipsychotic treatment", "assay": "study in tardive dyskinesia (AIMS)", "type": "in vivo, human", "conditions": "add on, 2,5 to 20 mg b.i.d., vs placebo period", "text": "Tardive dyskinesia is a common adverse effect of long-term treatment with neuroleptics. A typical study to investigate the efficacy of the compounds according to the invention in tardive dyskinesia is described in the following. 32 schizophrenic (DSM-III-R) inpatients aged 25-60 years on long-term stable antipsychotic treatment (duration of at least 5 years) entered the study. (2R,4R)-2-({[5-(4-fluorophenyl)-pyridin-3ylmethyl]-amino}-methyl)-chroman-4-ol monohydrochloride hemihydrate or placebo is administered as “add on” to the antipsychotic treatment, which is kept constant during the whole study. The dose of blinded medication is titrated over a period of 3 weeks in a range from 2,5 to 20 mg b.i.d. Then the medication is maintained under double-blind conditions for 2 weeks. After a 2-week wash-out period, the test drugs are crossed over. Assessments of tardive dyskinesia by means of the Abnormal Involuntary Movement Scale (AIMS, see above) and of Parkinsonian extrapyramidal side effects (UPDRS, see above) are made pretreatment and posttreatment."}}}
{"compound": "Cc1ccc2c(c1)C(N1CCN(C)CC1)=Nc1cccnc1N2", "note": "[8-methyl-6-(4-methyl-1-piperazineyl)-11 H-pyrido[2,3-b][1,4,]benzodiazepine]", "values": [{"measurement": "selectivity for the dopamine D4 receptor compared to clozapine", "setting": "dopamine D4 receptors", "value": "much increased selectivity"}, {"measurement": "ED50 (calculated dose to reverse catalepsy by 50%)", "setting": "cataleptic rat", "value": 3, "unit": "mg/kg"}, {"measurement": "effects in parkinsonian monkeys", "setting": "parkinsonian monkeys", "value": "beneficial effects"}]}
{"compound": "O=C1CC2(CCCC2)CC(=O)N1CCCCN1CCN(c2ncccn2)CC1", "note": "[buspirone]", "values": [{"measurement": "anti-dyskinetic effect", "setting": "Parkinson patients", "value": "moderate anti-dyskinetic properties"}, {"measurement": "ED50", "setting": "cataleptic rat", "value": 6, "unit": "mg/kg"}]}
{"compound": "O=C1c2ccccc2S(=O)(=O)N1CCCCN1CCN(c2ncccn2)CC1", "note": "[ipsapirone]", "values": [{"measurement": "ED50", "setting": "cataleptic rat", "value": 10, "unit": "mg/kg"}]}
{"compound": "(2R,4R)-2-({[5-(4-fluorophenyl)-pyridin-3ylmethyl]-amino}-methyl)-chroman-4-ol monohydrochloride hemihydrate", "values": [{"measurement": "other diary parameters", "setting": "[1]", "value": "not changed"}, {"measurement": "“on” time with troublesome dyskinesia", "setting": "[1]", "value": "significant reduction"}, {"measurement": "“on” time without dyskinesia", "setting": "[1]", "value": "significantly increase"}, {"measurement": "clinical improvement", "setting": "[2]", "value": "significant clinical improvement"}, {"measurement": "efficacy to treat tremor", "setting": "[2]", "value": "efficacy to treat tremor is shown"}, {"measurement": "UPDRS, Parkinson symptoms", "setting": "MSA patients", "value": "significant clinical improvement of Parkinson symptoms"}, {"measurement": "AIMS scores", "setting": "[3]", "value": "significantly lower than during placebo period"}]}
